Assay results published in patent publication US20240360177A1, “PEPTIDES WITH ANTIMICROBIAL ACTIVITIES” (priority 2021, published 2024).
≈ marks a conversion by molar mass, not a printed value. Read-outs that look alike come from different tables or passages of the source. Non-standard residues stand in square brackets, D forms with d. Residues, ends and D or L forms follow the SMILES beside them. Aoc = NCCCCCCCC(=O)O; βAla = NCCC(=O)O

How the values were obtained:
[1] = Acute toxicity in CD-1 mice; conditions: both sexes, mouse, in vivo
Protocol: Acute toxicity and subacute toxicity of ACPs were tested in CD-1 mice. In the acute toxicity study, groups of CD-1 male or female mice were administered single intravenous or intraperitoneal escalating doses (n=2-3 per dose) of the peptides dissolved in normal saline for injection or in phosphate buffered saline. The intravenous dose was administered via tail vein with a slow push over 15-20 seconds. Doses were escalated based on tolerability.

C. albicans = conditions: 24 h
C. glabrata = conditions: 24 h
C. parapsilosis = conditions: 24 h
C. krusei = conditions: 24 h
C. auris = conditions: 24 h
C. tropicalis = conditions: 24 h
C. dubliniensis = conditions: 24 h
C. neoformans = conditions: 72 h
C. gattii = conditions: 72 h
Coccidioides species = conditions: 48-72 hrs, >50% inhibition
Fusarium spp. = conditions: 48 h
Scedosporium spp. = conditions: 72 h
Rhizopus arrhizus = conditions: 24 h
Paecilomyces variotii = conditions: 48 h
in vitro [2] = conditions: human, EC50 cytotoxicity in HepG2, intracellular ATP assay
in vitro [3] = conditions: human, human serum, full strength
[4] = system: Staphylococcus aureus ATCC 29213; assay type: cell-based
[5] = system: Escherichia coli ATCC 25922; assay type: cell-based
[6] = system: Pseudomonas aeruginosa ATCC 27853; assay type: cell-based
[7] = Subacute toxicity in CD-1 mice; assay type: in vivo; conditions: daily IP for 7 days
Protocol: In the subacute toxicity study, groups of CD-1 male or female mice were administered seven consecutive daily intraperitoneal doses (n=3 per dose) of the peptides (SEQ ID NO: 7, SEQ ID NO: 29, SEQ ID NO: 53) dissolved in normal saline for injection. Each peptide was evaluated at 2 to 3 dose levels ranging from 2.5 to 7.5 mg/kg/day. Mice were weighed at least once daily and observed at least twice daily for any abnormal findings and determination of overall health. At 24 hrs after the last dose, mice were humanely euthanized, with blood collected through cardiac puncture into K2EDTA microtainers to assess hematological parameters. All three peptides were tolerated at the highest dose evaluated (7.5 mg/kg/day) for 7 days.

[8] = mice

Row | SMILES | MIC C. albicans (C. albicans) | MIC C. glabrata (C. glabrata) | MIC C. parapsilosis (C. parapsilosis) | MIC C. krusei (C. krusei) | MIC C. auris (C. auris) | MIC C. tropicalis (C. tropicalis) | MIC C. dubliniensis (C. dubliniensis) | MIC C. neoformans (C. neoformans) | MIC C. gattii (C. gattii) | MIC Range Fusarium spp. (Fusarium spp.) | MIC Range Scedosporium spp. (Scedosporium spp.) | MIC Range Lomentospora prolificans (Lomentospora prolificans) | EC50 (in vitro [2]) | remaining at 2 h, 5 μM (in vitro [3]) | MIC50 Candida species (Candida spp.) | MIC90 Candida species (Candida spp.) | MIC Staphylococcus aureus [4] | MIC Escherichia coli [5] | MIC Pseudomonas aeruginosa [6] | other results
1 | N=C(N)NCCC[C@@H](N)C(=O)N[C@@H](CCCNC(=N)N)C(=O)N[C@H](CCCNC(=N)N)C(=O)NCCC(=O)N[C@H](CCCNC(=N)N)C(=O)N[C@@H](CCCNC(=N)N)C(=O)N[C@H](CCCNC(=N)N)C(=O)NCCC(=O)N[C@H](CCCNC(=N)N)C(=O)N[C@@H](CCCNC(=N)N)C(=O)N[C@H](CCCNC(=N)N)C(=O)N[C@@H](CCCNC(=N)N)C(=O)NCCC(=O)N[C@H](CCCNC(=N)N)C(=O)N[C@@H](CCCNC(=N)N)C(=O)N[C@H](CCCNC(=N)N)C(=O)N[C@@H](CCCNC(=N)N)C(=O)O [SEQ ID NO: 8, rRr-(Apr)-rRr-(Apr)-rRrR-(Apr)-rRrR] (H-[dR]R[dR][βAla][dR]R[dR][βAla][dR]R[dR]R[βAla][dR]R[dR]R-OH) | 0.5 µg/mL (≈ 0.207 µM) | 0.5 µg/mL (≈ 0.207 µM) | 0.25 µg/mL (≈ 0.103 µM) | 0.5 µg/mL (≈ 0.207 µM) | 4 µg/mL (≈ 1.65 µM) | 0.25 µg/mL (≈ 0.103 µM) | 0.25 µg/mL (≈ 0.103 µM) | 0.5 µg/mL (≈ 0.207 µM) | 0.25 µg/mL (≈ 0.103 µM) | 0.25 to 0.5 µg/mL | ≤0.12 µg/mL | ≤0.12 µg/mL | > 300 µg/mL | ~100% |  |  |  |  |  | MTD ([1]; single IP dose, read-out: Tolerated single intraperitoneal dose): 10 to 15 mg/kg; MTD ([1]; single IV dose via tail vein, read-out: Tolerated single intravenous dose): 5 to 7.5 mg/kg; MIC Range Coccidioides species (Coccidioides species; N = 3 strains): 0.25 to 0.5 µg/mL; MIC Range Rhizopus arrhizus (Rhizopus arrhizus): 2 to 32 µg/mL; MIC Range Paecilomyces variotii (Paecilomyces variotii): 0.25 µg/mL (≈ 0.103 µM)
2 | N=C(N)NCCC[C@H](NC(=O)[C@H](CCCNC(=N)N)NC(=O)[C@H](CCCNC(=N)N)NC(=O)[C@H](CCCNC(=N)N)NC(=O)CCNC(=O)[C@H](CCCNC(=N)N)NC(=O)[C@H](CCCNC(=N)N)NC(=O)[C@H](CCCNC(=N)N)NC(=O)[C@H](CCCNC(=N)N)NC(=O)CCNC(=O)[C@H](CCCNC(=N)N)NC(=O)[C@H](CCCNC(=N)N)NC(=O)[C@H](CCCNC(=N)N)NC(=O)CCNC(=O)[C@H](CCCNC(=N)N)NC(=O)[C@H](CCCNC(=N)N)NC(=O)[C@@H](N)CCCNC(=N)N)C(N)=O [SEQ ID NO: 13, RRR-(Apr)-RRR-(Apr)-RRRR-(Apr)-RRRR-NH2] (H-RRR[βAla]RRR[βAla]RRRR[βAla]RRRR-NH2) | 8 µg/mL (≈ 3.31 µM) | 32 µg/mL (≈ 13.2 µM) | 0.25 µg/mL (≈ 0.103 µM) | 2 µg/mL (≈ 0.828 µM) | 4 µg/mL (≈ 1.66 µM) | 0.5 µg/mL (≈ 0.207 µM) | 2 µg/mL (≈ 0.828 µM) | 1 µg/mL (≈ 0.414 µM) | 0.5 µg/mL (≈ 0.207 µM) | 0.5 to 2 µg/mL | 0.25 µg/mL (≈ 0.103 µM) |  | > 300 µg/mL | ~40% | 4 µg/mL (≈ 1.66 µM) | 16 µg/mL (≈ 6.62 µM) |  |  |  | 
3 | N=C(N)NCCC[C@H](NC(=O)CCNC(=O)[C@H](CCCNC(=N)N)NC(=O)[C@@H](CCCNC(=N)N)NC(=O)[C@@H](N)CCCNC(=N)N)C(=O)N[C@H](CCCNC(=N)N)C(=O)N[C@@H](CCCNC(=N)N)C(=O)NCCC(=O)N[C@@H](CCCNC(=N)N)C(=O)N[C@H](CCCNC(=N)N)C(=O)N[C@@H](CCCNC(=N)N)C(=O)N[C@H](CCCNC(=N)N)C(=O)NCCC(=O)N[C@@H](CCCNC(=N)N)C(=O)N[C@H](CCCNC(=N)N)C(=O)N[C@@H](CCCNC(=N)N)C(=O)N[C@H](CCCNC(=N)N)C(N)=O [SEQ ID NO: 15, RrR-(Apr)-RrR-(Apr)-RrRr-(Apr)-RrRr-NH2] (H-R[dR]R[βAla]R[dR]R[βAla]R[dR]R[dR][βAla]R[dR]R[dR]-NH2) | 1 µg/mL (≈ 0.414 µM) | 0.5 µg/mL (≈ 0.207 µM) | 0.25 µg/mL (≈ 0.103 µM) | 0.5 µg/mL (≈ 0.207 µM) | 0.5 µg/mL (≈ 0.207 µM) | 0.25 µg/mL (≈ 0.103 µM) | 0.5 µg/mL (≈ 0.207 µM) | 0.5 µg/mL (≈ 0.207 µM) | 0.25 µg/mL (≈ 0.103 µM) | 0.12 to 0.25 µg/mL | 0.25 to 0.5 µg/mL |  | > 300 µg/mL | ~100% | 0.5 µg/mL (≈ 0.207 µM) | 1 µg/mL (≈ 0.414 µM) | 16 µg/mL (≈ 6.62 µM) | 32 µg/mL (≈ 13.2 µM) | 64 µg/mL (≈ 26.5 µM) | 
4 | N=C(N)NCCC[C@@H](N)C(=O)N[C@@H](CCCNC(=N)N)C(=O)N[C@H](CCCNC(=N)N)C(=O)NCCCCCCCC(=O)N[C@H](CCCNC(=N)N)C(=O)N[C@@H](CCCNC(=N)N)C(=O)N[C@H](CCCNC(=N)N)C(=O)NCCCCCCCC(=O)N[C@H](CCCNC(=N)N)C(=O)N[C@@H](CCCNC(=N)N)C(=O)N[C@H](CCCNC(=N)N)C(=O)N[C@@H](CCCNC(=N)N)C(=O)NCCCCCCCC(=O)N[C@H](CCCNC(=N)N)C(=O)N[C@@H](CCCNC(=N)N)C(=O)N[C@H](CCCNC(=N)N)C(=O)N[C@@H](CCCNC(=N)N)C(N)=O [SEQ ID NO: 29, rRr-(Aoa)-rRr-(Aoa)-rRrR-(Aoa)-rRrR-NH2] (H-[dR]R[dR][Aoc][dR]R[dR][Aoc][dR]R[dR]R[Aoc][dR]R[dR]R-NH2) | 1 µg/mL (≈ 0.381 µM) | 0.5 µg/mL (≈ 0.19 µM) | 0.5 µg/mL (≈ 0.19 µM) | 0.5 µg/mL (≈ 0.19 µM) | 0.5 µg/mL (≈ 0.19 µM) | 0.5 µg/mL (≈ 0.19 µM) | 0.5 µg/mL (≈ 0.19 µM) | 0.5 µg/mL (≈ 0.19 µM) | 0.5 µg/mL (≈ 0.19 µM) | 0.5 µg/mL (≈ 0.19 µM) | 0.5 µg/mL (≈ 0.19 µM) | 0.5 µg/mL (≈ 0.19 µM) | > 300 µg/mL | ~100% |  |  | 16 µg/mL (≈ 6.09 µM) | 16 µg/mL (≈ 6.09 µM) | 32 µg/mL (≈ 12.2 µM) | Tolerated dose (highest dose evaluated) [7]: 7.5 mg/kg/day; Clinical or hematological adverse effects ([7]; up to 7.5 mg/kg/day): No significant clinical or hematological adverse effects were observed; MIC Range Coccidioides species (Coccidioides species; N = 10 strains): 0.06 to 0.25 µg/mL; Kidney to Plasma Concentration Ratio Day 7 ([8]; 6 hrs post dose of 7.5 mg/kg IP once daily, Day 7, mean ± SD, n = 3): 361 ± 322; Kidney to Plasma Concentration Ratio Day 1 ([8]; 6 hrs post dose of 7.5 mg/kg IP, Day 1, mean ± SD, n = 3): 236 ± 233; Day 1 AUC ratio, kidney to plasma ([8]; IP 7.5 mg/kg, Day 1): 158
